Results: EP0943615A1, “1,4-DIHYDROPYRIDINE DERIVATIVES” (Nikken Chemicals Company, Limited, priority 1996, dated 1998)

Test system: VJ-300 cells
Assay: In vitro test of action suppressing proliferation of cancer cells, combined administration of doxorubicin (colony formation), resistant cells
Type: cell-based, Human
Details: ADM alone or ADM + test compound 1 µg/ml, LD50 of ADM relative to ADM alone in KB cells = 1, 7 days incubation, colony count
Method: Human rhinopharynx cancer derived KB cells (i.e., sensitive cells) and their multi-drug resistant clone VJ-300 cells (i.e., resistant cells) were used as the test cells. As the incubation solutions, use was made of 10% fetal calf serum (Flow Laboratories) and Eagle MEM medium (Nissui Seiyaku) containing 0.292 mg/ml of L-glutamine (Flow Laboratories). The tests of the action for overcoming resistance to anti-cancer drugs or action for increasing the effect of the anti-cancer drug with the combined administration of the anti-cancer drug doxorubicin (i.e., adriamycin, ADM) and the test compound were performed as follows:
The test cells were suspended in incubation solutions and adjusted to a cell density of about 200 cells/ml. The cell suspensions were injected in 2 ml amounts into petri dishes and were incubated in a CO2 gas incubator (5% CO2, 95% air) at 37°C for 24 hours. Then, 5 µl of a predetermined concentration of the aqueous ADM solution and a predetermined concentration of a DMSO solution of the test compound were added, then the incubation was continued for a further 7 days. After the end of the incubation, the result was immobilized with methanol, Giemsa stained and measured for the number of colonies per dish. The results were used to prepare a volume-reaction curve. […] The results are shown in Table 8 to Table 10 using the concentration of LD50 of ADM in the ADM alone group by KB cells as the resistance degree 1 and calculating the resistances of the following LD50 concentrations as relative ratios. […]

Going from `CCOC(=O)C1=C(c2ccc(-n3c(C)nc4cnccc43)cc2)NC(C)=C(C(=O)OC/C=C/c2cccnc2)C1/C=C/c1ccoc1` (stereo not shown) [Compound 27, 4-[(E]-2-(3-furyl)ethenyl]-6-methyl-2-[4-(2-methylimidazo[4,5-c]pyridin-1-yl)phenyl]-1,4-dihydropyridin-3,5-dicarboxylate 3-ethylester, 5-[(E)-3-(3-pyridyl)-2-propenyl]ester] to `COC(=O)C1=C(c2ccc(-n3c(C)nc4cnccc43)cc2)NC(C)=C(C(=O)OC/C=C/c2cccnc2)C1/C=C/c1ccsc1` (stereo not shown) [Compound 41], the “Degree of resistance for ADM VJ-300” value falls from 8.7 to 7.8.

First: CCOC(=O)C1=C(c2cccc(-n3ccnc3)c2)NC(C)=C(C(=O)OC/C=C/c2cccnc2)C1/C=C/c1ccccc1 (stereo not shown) [Compound 36, 2-[3-(1-imidazolyl)phenyl]-6-methyl-4-[(E)-2-phenylethenyl]-1,4-dihydropyridin-3,5-dicarboxylate 3-ethylester, 5-[(E)-3-(3-pyridyl)-2-propenyl]ester]
Second: CCOC(=O)C1=C(c2ccc(-n3nnc4ccccc43)cc2)NC(C)=C(C(=O)OC/C=C/c2cccnc2)C1/C=C/c1ccccc1 (stereo not shown) [Compound 32, 2-[4-(1H-benzotriazol-1-yl)phenyl]-6-methyl-4-[(E)-2-phenylethenyl]-1,4-dihydropyridin-3,5-dicarboxylate 3-ethylester, 5-[(E)-3-(3-pyridyl)-2-propenyl]ester]
The “Degree of resistance for ADM VJ-300” value of the first is lower: 1.0 for the first, 1.4 for the second.

Going from `CCOC(=O)C1=C(c2ccc(-n3c(C)nc4cnccc43)cc2)NC(C)=C(C(=O)OCCCc2cccnc2)C1CC(C)(C)C` (stereo not shown) [Compound 8, 4-(2,2-dimethylpropyl)-6-methyl-2-[4-(2-methylimidazo[4,5-c]pyridin-1-yl)phenyl]-1,4-dihydropyridin-3,5-dicarboxylate 3-ethylester, 5-[3-(3-pyridyl)propyl]ester] to `CCOC(=O)C1=C(c2ccc(-n3c(C)nc4cnccc43)cc2)NC(C)=C(C(=O)OCCCc2cccnc2)C1C1CCCCC1` (stereo not shown) [Compound 9, 4-cyclohexyl-6-methyl-2-[4-(2-methylimidazo[4,5-c]pyridin-1-yl)phenyl]-1,4-dihydropyridin-3,5-dicarboxylate 3-ethylester, 5-[3-(3-pyridyl)propyl]ester], the “Degree of resistance for ADM VJ-300” value rises from 1.3 to 2.9.

Compared with `COC(=O)C1=C(c2ccc(-n3ccnc3)cc2)NC(C)=C(C(=O)OC/C=C/c2cccnc2)C1C#Cc1ccccc1` (stereo not shown) [Compound 40, 2-[4-(1-imidazolyl)phenyl]-6-methyl-4-phenylethynyl-1,4-dihydropyridin-3,5-dicarboxylate 3-methylester, 5-[(E)-3-(3-pyridyl)-2-propenyl]ester], `CCOC(=O)C1=C(c2ccc(-n3ccc4ccccc43)cc2)NC(C)=C(C(=O)OC/C=C/c2cccnc2)C1/C=C/c1ccccc1` (stereo not shown) [Compound 35, 2-[4-(1-indolyl)phenyl]-6-methyl-4-[(E)-2-phenylethenyl]-1,4-dihydropyridin-3,5-dicarboxylate 3-ethylester, 5-[(E)-3-(3-pyridyl)-2-propenyl]ester] is higher in “Degree of resistance for ADM VJ-300” value: 2.5 for the first, 3.0 for the second.

First: CCOC(=O)C1=C(c2ccc(N3CCN(C)CC3)cc2)NC(C)=C(C(=O)OC/C=C/c2cccnc2)C1/C=C/c1ccccc1 (stereo not shown) [Compound 30, 6-methyl-2-[4-(4-methylpiperadin-1-yl)phenyl]-1,4-dihydropyridin-4-[(E)-2-phenylethenyl]-3,5-dicarboxylate 3-ethylester, 5-[(E)-3-(3-pyridyl)-2-propenyl]ester]
Second: CCOC(=O)C1=C(c2ccc(-n3c(C)nc4cnccc43)cc2)NC(C)=C(C(=O)OCCCC(=O)c2cccnc2)C1/C=C/c1ccccc1 (stereo not shown) [Compound 47, 6-methyl-2-[4-(2-methylimidazo[4,5-c]pyridin-1-yl)phenyl]-4-[(E)-2-phenylethenyl]-1,4-dihydropyridin-3,5-dicarboxylate 3-ethylester, 5-(3-nicotinoylpropyl)ester]
The “Degree of resistance for ADM VJ-300” value of the first is lower: 1.0 for the first, 1.2 for the second.
